Test results: ChEMBL document CHEMBL6087454, “Identification of Novel Organo-Se BTSA-Based Derivatives as Potent, Reversible, and Selective PPARγ Covalent Modulators for Antidiabetic Drug Discovery” (J Med Chem, 2025)
Active and inactive are the calls of the source. The calls are words filed in the database; no cut-off is given here.

What was measured:
Mus musculus [1] = assay: Antidiabetic activity in male db/db mouse model assessed as increase in ANGPTL4 protein abundance in liver at 2.5 to 10 mg/kg/day, ip administered for 4 weeks by Western blotting analysis; type: functional, organism-based; conditions: dose 2.5-10 mg/kg/day
Mus musculus [2] = assay: Antidiabetic activity in male db/db mouse model assessed as upregulation of adiponectin gene expression in white adipose tissue at 2.5 to 10 mg/kg/day, ip administered for 4 weeks by RT-qPCR analysis; type: functional, organism-based; conditions: dose 2.5-10 mg/kg/day
Mus musculus [3] = assay: Antidiabetic activity in male db/db mouse model assessed as decrease in serum insulin level at 2.5 to 10 mg/kg/day, ip preadministered for 4 weeks followed by glucose administration after 4 to 6 hrs of fasting and measured after 120 mins by intraperitoneal insulin tolerance test; type: functional, organism-based; conditions: dose 2.5-10 mg/kg/day
[4] = Toxicity in male db/db mouse model assessed as effect on spleen weight at 2.5 to 10 mg/kg/day, ip administered for 4 weeks; type: organism-based; conditions: in vivo, 672 h, dose 2.5-10 mg/kg/day
Mus musculus [5] = assay: Antidiabetic activity in male db/db mouse model assessed as downregulation of LPL gene expression in liver at 2.5 to 10 mg/kg/day, ip administered for 4 weeks by RT-qPCR analysis; type: functional, organism-based; conditions: dose 2.5-10 mg/kg/day
[6] = molecular target: T1, Peroxisome proliferator-activated receptor gamma (Homo sapiens, UniProt P37231); assay: Binding affinity to recombinant GST-tagged human PPAR-gamma ligand binding domain (E235 to Y505 residues) extracted from Escherichia coli BL21 (DE3) cells assessed as inhibition constant in presence of fluormone pan-PPAR green tracer by TR-FRET assay
T1 sequence (P37231 whole entry): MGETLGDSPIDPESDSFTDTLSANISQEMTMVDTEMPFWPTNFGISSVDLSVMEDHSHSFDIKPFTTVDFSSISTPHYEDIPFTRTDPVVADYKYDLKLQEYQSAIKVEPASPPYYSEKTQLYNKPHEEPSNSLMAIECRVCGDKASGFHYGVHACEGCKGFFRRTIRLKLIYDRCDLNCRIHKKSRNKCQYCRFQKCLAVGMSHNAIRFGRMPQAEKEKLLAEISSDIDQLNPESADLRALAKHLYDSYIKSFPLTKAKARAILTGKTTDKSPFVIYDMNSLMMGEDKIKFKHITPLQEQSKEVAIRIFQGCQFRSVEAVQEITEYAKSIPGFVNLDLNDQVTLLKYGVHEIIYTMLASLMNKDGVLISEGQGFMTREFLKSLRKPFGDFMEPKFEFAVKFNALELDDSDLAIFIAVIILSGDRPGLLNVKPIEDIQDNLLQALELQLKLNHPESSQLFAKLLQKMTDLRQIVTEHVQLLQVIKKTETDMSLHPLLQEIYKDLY

[7] = molecular target: T2, Peroxisome proliferator-activated receptor delta (Homo sapiens) (UniProt Q03181); assay: Binding affinity to PPAR-delta (unknown origin) at 0.5 uM in presence of fluormone pan-PPAR green tracer by TR-FRET assay
T2 sequence (whole entry): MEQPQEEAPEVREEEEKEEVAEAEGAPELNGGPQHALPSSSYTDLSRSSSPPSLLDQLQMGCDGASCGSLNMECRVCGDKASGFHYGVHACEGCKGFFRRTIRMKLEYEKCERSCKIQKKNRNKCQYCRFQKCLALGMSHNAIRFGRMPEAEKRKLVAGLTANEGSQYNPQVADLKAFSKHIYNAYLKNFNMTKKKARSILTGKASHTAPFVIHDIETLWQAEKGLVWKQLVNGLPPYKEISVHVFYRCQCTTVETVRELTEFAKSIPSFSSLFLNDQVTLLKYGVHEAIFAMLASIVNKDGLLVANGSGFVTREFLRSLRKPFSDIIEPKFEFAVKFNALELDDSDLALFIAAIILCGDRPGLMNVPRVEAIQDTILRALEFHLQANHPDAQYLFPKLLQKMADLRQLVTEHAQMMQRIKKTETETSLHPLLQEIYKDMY

3T3-L1 [8] = assay: Insulin sensitizing activity in mouse 3T3-L1 cells assessed as upregulation of adiponectin gene expression at 1 uM measured after 48 hrs by RT-qPCR analysis; type: functional, cell-based
Mus musculus [9] = assay: In vivo inhibition of Erk/Cdk5-mediated PPAR-gamma phosphorylation at Ser273 residue in male db/db mouse model assessed as decrease in phosphorylated-MEK expression in white adipose tissue at 2.5 to 10 mg/kg/day, ip administered for 4 weeks by Western blotting analysis; type: functional, organism-based; conditions: dose 2.5-10 mg/kg/day
Homo sapiens = organism: Homo sapiens; assay: Binding affinity to PPAR-beta (unknown origin) at 0.5 uM in presence of fluormone pan-PPAR green tracer by TR-FRET assay
Mus musculus [10] = assay: Antidiabetic activity in male db/db mouse model assessed as downregulation of FASN gene expression in white adipose tissue at 2.5 to 10 mg/kg/day, ip administered for 4 weeks by RT-qPCR analysis; type: functional, organism-based; conditions: dose 2.5-10 mg/kg/day
Mus musculus [11] = assay: Antidiabetic activity in male db/db mouse model assessed as downregulation of SOCS3 gene expression in liver at 2.5 to 10 mg/kg/day, ip administered for 4 weeks by RT-qPCR analysis; type: functional, organism-based; conditions: dose 2.5-10 mg/kg/day
Mus musculus [12] = assay: Antidiabetic activity in male db/db mouse model assessed as downregulation of SOCS3 gene expression in white adipose tissue at 2.5 to 10 mg/kg/day, ip administered for 4 weeks by RT-qPCR analysis; type: functional, organism-based; conditions: dose 2.5-10 mg/kg/day
Mus musculus [13] = assay: Antidiabetic activity in male db/db mouse model assessed as reduction in fasting blood glucose level administered intraperitoneally for 4 weeks; type: functional, organism-based; conditions: dose 2.5-10 mg/kg/day, route ip
3T3-L1 [14] = assay: Inhibition of adipogenesis in mouse 3T3-L1 cells assessed as downregulation of CD36 gene expression at 1 uM measured after 48 hrs by RT-qPCR analysis; type: functional, cell-based
Mus musculus [15] = assay: Antidiabetic activity in male db/db mouse model assessed as decrease in PDK4 protein abundance in liver at 2.5 to 10 mg/kg/day, ip administered for 4 weeks by Western blotting analysis; type: functional, organism-based; conditions: dose 2.5-10 mg/kg/day
[16] = Toxicity in male db/db mouse model assessed as effect on heart morphology at 2.5 to 10 mg/kg/day, ip administered for 4 weeks; type: organism-based; conditions: in vivo, 672 h, dose 2.5-10 mg/kg/day
[17] = Toxicity in male db/db mouse model assessed as effect on kidney weight at 2.5 to 10 mg/kg/day, ip administered for 4 weeks; type: organism-based; conditions: in vivo, 672 h, dose 2.5-10 mg/kg/day
Mus musculus [18] = assay: Antidiabetic activity in male db/db mouse model assessed as upregulation of Glut4 gene expression in white adipose tissue at 2.5 to 10 mg/kg/day, ip administered for 4 weeks by RT-qPCR analysis; type: functional, organism-based; conditions: dose 2.5-10 mg/kg/day
[19] = Toxicity in male db/db mouse model assessed as body weight gain at 2.5 to 10 mg/kg/day, ip administered for 4 weeks; type: organism-based; conditions: in vivo, 672 h, dose 2.5-10 mg/kg/day
Mus musculus [20] = assay: Antidiabetic activity in male db/db mouse model assessed as reduction in random blood glucose level administered intraperitoneally for 4 weeks; type: functional, organism-based; conditions: dose 2.5-10 mg/kg/day, route ip
3T3-L1 [21] = assay: Insulin sensitizing activity in mouse 3T3-L1 cells assessed as downregulation of SOCS3 gene expression at 1 uM measured after 48 hrs by RT-qPCR analysis; type: functional, cell-based
3T3-L1 [22] = assay: Insulin sensitizing activity in mouse 3T3-L1 cells assessed as downregulation of PTP1B gene expression at 1 uM measured after 48 hrs by RT-qPCR analysis; type: functional, cell-based

In the case of `Cc1ccc(S(=O)(=O)Oc2ccc(S3(=O)=N[Se]c4cc(OS(=O)(=O)c5ccc(C)cc5)ccc43)cc2)cc1` (stereo not drawn), the Activity (Mus musculus [1]) is reported as “Active”, the Activity (Mus musculus [2]) is reported as “Active” and the Activity (Mus musculus [3]) is reported as “Active”. The Activity [4] was “Non-toxic”, the Activity (Mus musculus [5]) was “Active” and the Ki [6] was 124 nM. The Activity [7] was “inactive”, the Activity (3T3-L1 [8]) was “Active” and the inhibition (Mus musculus [9]) was “Active”. For the same compound, the Activity (Homo sapiens) was “inactive”, the Activity (Mus musculus [10]) was “Active” and the Activity (Mus musculus [11]) was “Active”. The Activity (Mus musculus [12]) was “Active”, the Activity (Mus musculus [13]) was “Dose-dependent-effect” and the inhibition (3T3-L1 [14]) was “Active”. For the same compound, the Activity (Mus musculus [15]) was “Active”, the Activity [16] was “Non-toxic” and the Activity [17] was “Non-toxic”. The Activity (Mus musculus [18]) was “Active”, the Activity [19] was “Non-toxic” and the Activity (Mus musculus [20]) was “Dose-dependent-effect”. The Activity (3T3-L1 [21]) was “Active” and the Activity (3T3-L1 [22]) was “Active”.
